# Key:
# Type in all cases: in vivo
# [1] = test system: acetic-acid induced chronic gastric ulcers; test: Treatment of acetic-acid induced chronic gastric ulcers in rats
# Description: After fasting for 24 hours, the rats were anesthetized and disinfected in a conventional way, and then was cut from the xiphoid down along the medioventral line to about 2 cm, so as to remove the stomach from the enterocoelia; 5 μl of 100% glacial acetic acid was injected by using a microsyringe into a position close to the muscular layer below the anterior wall serosa of the gastric antrum; when a translucent white spot with a diameter of about 3 mm appeared, the stomach was given back to the enterocoelia, and was enveloped in omentum majus; then, peritoneum, muscular layer and skin were sutured in this order.
# Each drug was divided into 5 groups according to the administration method described above, namely, a model group and four groups with different doses of drugs. Each group of the drugs was administered to 6 to 8 […]. At the third day after the surgery, the treatment started by intragastrically administering drugs to the rats once a day for 7 days, wherein normal saline was administered in the same volume to the rats in the model group instead. […] The following indices were measured:
# (1) ulcer index: the longest diameter in the length direction of an ulcer area and the longest diameter in the width direction perpendicular to the longest diameter in the length direction of the ulcer area were measured by a vernier caliper, and the product of the above two diameters is the ulcer index.
# (2) ulcer inhibition rate: it represents the inhibition effect of a drug on the ulcer index.
# [2] = test system: IL-1β-induced recurrence of acetic-acid induced chronic gastric ulcers; test: Prevention of IL-1β-induced recurrence of acetic-acid induced chronic gastric ulcers in rats; conditions: 10 mg/kg/d intragastric for 7 days before IL-1β
# Description: In this study and experiment, we evaluated the preventive effect of the tested drug (namely, the bioactive glass) on the recurrence of chronic gastric ulcers by adopting the rat model of IL-1β-induced recurrence of acetic-acid induced chronic gastric ulcer, and using omeprazole as the control.
# The model of acetic-acid induced chronic gastric ulcer was first copied here: After fasting for 24 hours, the rats were anesthetized and disinfected in a conventional way, and then was cut from the xiphoid down along the medioventral line to about 2 cm, so as to remove the stomach from the enterocoelia; 5 μl of 100% glacial acetic acid was injected by using a microsyringe into a position close to the muscular layer below the anterior wall serosa of the gastric antrum; when a translucent white spot with a diameter of about 3 mm appeared, the stomach was given back to the enterocoelia, and was enveloped in omentum majus; then, peritoneum, muscular layer and skin were sutured in this order. 90 days after the injection of acetic acid, a model of gastric ulcer recurrence was copied by intraperitoneal injection of 1 μg/kg of IL-1β according to the method described in “Role of neutrophils in a rat model of gastric ulcer recurrence caused by interleukin-1 beta”, T. Watanabe, T. Arakawa, T. Fukuda, K. Higuchi, and K. Kobayashi, Am J Pathol, 1997, 150:971-979 . […]
# [3] = test system: mouse stress-induced gastric ulcers; test: Comparative experiment on inhibition of stress-induced gastric ulcers versus representative drugs; conditions: mice, intragastric, stress in water 15 hours
# Description: The mice were divided into four groups, to which deionized water (the solvent control group), and three kinds of Weibeisheng with pH 7, 8 and 9 at a dose of 1 g/kg were respectively intragastrically administrated. Two hours later, the mice were subjected to stress in water at 21±1° C. for 15 hours, and were administered again two hours before the end of the stress. Then the animals were killed and autopsy was performed. […]
# Two hours later, the mice were subjected to stress in water at 21±1° C. for 15 hours (the drug was administered to the Weibeisheng group again two hours before the end of stress). […] After the ulcer index of each group was scored, the inhibition effect of each drug on mouse stress-induced gastric ulcers (namely, the maximum inhibition rate Emax) was calculated.
# The ratios used in these two Experiment Examples were determined according to the weight of the mouse and the amount of intragastric administration.
structure (smiles),measurement,setting,value
"COc1ccc2[nH]c([S+]([O-])Cc3ncc(C)c(OC)c3C)nc2c1 (centres unmarked) [Omeprazole, omeprazole]",ED50,"[1]; Rattus norvegicus, po, 168 h, rats, intragastric once a day for 7 days, ulcer inhibition rate, read-out: ED50 (median effective dose)",1.3 mg/kg
same,median effective dose ED50 for treating chronic gastric ulcers,"[1]; chronic gastric ulcers, as stated in summary/description",1.3 mg/kg/day
same,Emax (maximum inhibition rate),"[1]; rats, intragastric once a day for 7 days",66.2 ± 7.4%
same,preventive effect on the recurrence of chronic gastric ulcers (inhibition rate),[2],50%
same,Emax (% inhibition rate),[3],64.8 % inhibition rate

# Source: patent publication US9669054B2, “pH buffered bioactive glass, and its preparation process and use” (CHANGZHOU BIO-SHENG TECHNOLOGY CO., LTD., priority 2011, dated 2017)
